# Test results reported in patent US10189816B2, “Substituted pyridines as inhibitors of human immunodeficiency virus replication” (priority 2015, dated 2019).
# pEC50: −log10 of the molar value. Where two headings read alike, the source gives them in different places.
# System: NL-RLuc virus
# Experiment: Inhibition of HIV replication (NL-RLuc reporter virus in MT-2 cells, luciferase readout)
# Assay type: cell-based
# Details: Human immunodeficiency virus 1, MT2, 120 h; for pEC50: read-out: Activity; for EC50: read-out: EC50 μM
# How it was run: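 Antiviral EC50 came from luciferase signal after 5-day multicycle replication of NL-RLuc virus in MT-2 cells with serially diluted compound (RPMI 1640, 10% heat-inactivated FBS), fitted by the median effect equation over at least 2 experiments.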
SMILES,pEC50,EC50
"COc1cccc(CN2CCc3cc(-c4c(C)nc(C)c([C@H](OC(C)(C)C)C(=O)O)c4N4CCC(C)(C)CC4)ccc3C2)c1Cl [Compound 129, (S)-2-(tert-butoxy)-2-(5-(2-(2-chloro-3-methoxybenzyl)-1,2,3,4-tetrahydroisoquinolin-6-yl)-4-(4,4-dimethylpiperidin-1-yl)-2,6-dimethylpyridin-3-yl)acetic acid]",> 7.00,0.003 µM
"Cc1nc(C)c([C@H](OC(C)(C)C)C(=O)O)c(N2CCC(C)(C)CC2)c1-c1ccc2c(c1)CCN(Cc1ccc(OC(F)(F)C(F)F)cc1)C2 [Compound 125, (S)-2-(tert-butoxy)-2-(4-(4,4-dimethylpiperidin-1-yl)-2,6-dimethyl-5-(2-(4-(1,1,2,2-tetrafluoroethoxy)benzyl)-1,2,3,4-tetrahydroisoquinolin-6-yl)pyridin-3-yl)acetic acid]",> 7.00,
"Cc1nc(C)c([C@H](OC(C)(C)C)C(=O)O)c(N2CCC(C)(C)CC2)c1-c1ccc2c(c1)CCN(Cc1cc(F)ccc1C(F)(F)F)C2 [Compound 66, (S)-2-(tert-butoxy)-2-(4-(4,4-dimethylpiperidin-1-yl)-5-(2-(5-fluoro-2-(trifluoromethyl)benzyl)-1,2,3,4-tetrahydroisoquinolin-6-yl)-2,6-dimethylpyridin-3-yl)acetic acid]",> 7.00,0.013 µM
"Cc1ccc(CN2CCc3cc(-c4c(C)nc(C)c([C@H](OC(C)(C)C)C(=O)O)c4N4CCC(C)(C)CC4)ccc3C2)cc1 [Compound 5, (S)-2-(tert-butoxy)-2-(4-(4,4-dimethylpiperidin-1-yl)-2,6-dimethyl-5-(2-(4-methylbenzyl)-1,2,3,4-tetrahydroisoquinolin-6-yl)pyridin-3-yl)acetic acid]",> 7.00,
"COc1cccc(F)c1CN1CCc2cc(-c3c(C)nc(C)c([C@H](OC(C)(C)C)C(=O)O)c3N3CCC(C)(C)CC3)ccc2C1 [Compound 115, (S)-2-(tert-butoxy)-2-(4-(4,4-dimethylpiperidin-1-yl)-5-(2-(2-fluoro-6-methoxybenzyl)-1,2,3,4-tetrahydroisoquinolin-6-yl)-2,6-dimethylpyridin-3-yl)acetic acid]",> 7.00,
"Cc1nc(C)c([C@H](OC(C)(C)C)C(=O)O)c(N2CCC(C)(C)CC2)c1-c1ccc2c(c1)CCN(Cc1c(Cl)cccc1Cl)C2 [Compound 128, (S)-2-(tert-butoxy)-2-(5-(2-(2,6-dichlorobenzyl)-1,2,3,4-tetrahydroisoquinolin-6-yl)-4-(4,4-dimethylpiperidin-1-yl)-2,6-dimethylpyridin-3-yl)acetic acid]",> 7.00,
"Cc1nc(C)c([C@H](OC(C)(C)C)C(=O)O)c(N2CCC(C)(C)CC2)c1-c1ccc2c(c1)CCN(Cc1cc(F)cc(Cl)c1)C2 [Compound 43, (S)-2-(tert-butoxy)-2-(5-(2-(3-chloro-5-fluorobenzyl)-1,2,3,4-tetrahydroisoquinolin-6-yl)-4-(4,4-dimethylpiperidin-1-yl)-2,6-dimethylpyridin-3-yl)acetic acid]",> 7.00,
"Cc1nc(C)c([C@H](OC(C)(C)C)C(=O)O)c(N2CCC(C)(C)CC2)c1-c1ccc2c(c1)CCN(Cc1cccc(Cl)c1F)C2 [Compound 130, (S)-2-(tert-butoxy)-2-(5-(2-(3-chloro-2-fluorobenzyl)-1,2,3,4-tetrahydroisoquinolin-6-yl)-4-(4,4-dimethylpiperidin-1-yl)-2,6-dimethylpyridin-3-yl)acetic acid]",> 7.00,
"COc1cc(C(F)(F)F)ccc1CN1CCc2cc(-c3c(C)nc(C)c([C@H](OC(C)(C)C)C(=O)O)c3N3CCC(C)(C)CC3)ccc2C1 [Compound 109, (S)-2-(tert-butoxy)-2-(4-(4,4-dimethylpiperidin-1-yl)-5-(2-(2-methoxy-4-(trifluoromethyl)benzyl)-1,2,3,4-tetrahydroisoquinolin-6-yl)-2,6-dimethylpyridin-3-yl)acetic acid]",> 7.00,
"COc1ccc(CN2CCc3cc(-c4c(C)nc(C)c([C@H](OC(C)(C)C)C(=O)O)c4N4CCC(C)(C)CC4)ccc3C2)cc1C(C)C [Compound 143, (S)-2-(tert-butoxy)-2-(4-(4,4-dimethylpiperidin-1-yl)-5-(2-(3-isopropyl-4-methoxybenzyl)-1,2,3,4-tetrahydroisoquinolin-6-yl)-2,6-dimethylpyridin-3-yl)acetic acid]",> 7.00,
"Cc1nc(C)c([C@H](OC(C)(C)C)C(=O)O)c(N2CCC(C)(C)CC2)c1-c1ccc2c(c1)CCN(Cc1cccc(F)c1F)C2 [Compound 21, (S)-2-(tert-butoxy)-2-(5-(2-(2,3-difluorobenzyl)-1,2,3,4-tetrahydroisoquinolin-6-yl)-4-(4,4-dimethylpiperidin-1-yl)-2,6-dimethylpyridin-3-yl)acetic acid]",> 7.00,
"COc1ccc(F)c(F)c1CN1CCc2cc(-c3c(C)nc(C)c([C@H](OC(C)(C)C)C(=O)O)c3N3CCC(C)(C)CC3)ccc2C1 [Compound 87, (S)-2-(tert-butoxy)-2-(5-(2-(2,3-difluoro-6-methoxybenzyl)-1,2,3,4-tetrahydroisoquinolin-6-yl)-4-(4,4-dimethylpiperidin-1-yl)-2,6-dimethylpyridin-3-yl)acetic acid]",> 7.00,
"Cc1nc(C)c([C@H](OC(C)(C)C)C(=O)O)c(N2CCC(C)(C)CC2)c1-c1ccc2c(c1)CCN(Cc1cc(Cl)ccc1F)C2 [Compound 42, (S)-2-(tert-butoxy)-2-(5-(2-(5-chloro-2-fluorobenzyl)-1,2,3,4-tetrahydroisoquinolin-6-yl)-4-(4,4-dimethylpiperidin-1-yl)-2,6-dimethylpyridin-3-yl)acetic acid]",> 7.00,
"Cc1nc(C)c([C@H](OC(C)(C)C)C(=O)O)c(N2CCC(C)(C)CC2)c1-c1ccc2c(c1)CCN(Cc1c(F)cc(Cl)cc1F)C2 [Compound 135, (S)-2-(tert-butoxy)-2-(5-(2-(4-chloro-2,6-difluorobenzyl)-1,2,3,4-tetrahydroisoquinolin-6-yl)-4-(4,4-dimethylpiperidin-1-yl)-2,6-dimethylpyridin-3-yl)acetic acid]",> 7.00,
"COc1cc(F)ccc1CN1CCc2cc(-c3c(C)nc(C)c([C@H](OC(C)(C)C)C(=O)O)c3N3CCC(C)(C)CC3)ccc2C1 [Compound 117, (S)-2-(tert-butoxy)-2-(4-(4,4-dimethylpiperidin-1-yl)-5-(2-(4-fluoro-2-methoxybenzyl)-1,2,3,4-tetrahydroisoquinolin-6-yl)-2,6-dimethylpyridin-3-yl)acetic acid]",> 7.00,
"Cc1nc(C)c([C@H](OC(C)(C)C)C(=O)O)c(N2CCC(C)(C)CC2)c1-c1ccc2c(c1)CCN(Cc1cc(F)cc(F)c1)C2 [Compound 31, (S)-2-(tert-butoxy)-2-(5-(2-(3,5-difluorobenzyl)-1,2,3,4-tetrahydroisoquinolin-6-yl)-4-(4,4-dimethylpiperidin-1-yl)-2,6-dimethylpyridin-3-yl)acetic acid]",> 7.00,0.011 µM
"Cc1nc(C)c([C@H](OC(C)(C)C)C(=O)O)c(N2CCC(C)(C)CC2)c1-c1ccc2c(c1)CCN(Cc1ccccc1OC(C)C)C2 [Compound 152, (S)-2-(tert-butoxy)-2-(4-(4,4-dimethylpiperidin-1-yl)-5-(2-(2-isopropoxybenzyl)-1,2,3,4-tetrahydroisoquinolin-6-yl)-2,6-dimethylpyridin-3-yl)acetic acid]",> 7.00,
"COc1cccc(Cl)c1CN1CCc2cc(-c3c(C)nc(C)c([C@H](OC(C)(C)C)C(=O)O)c3N3CCC(C)(C)CC3)ccc2C1 [Compound 145, (S)-2-(tert-butoxy)-2-(5-(2-(2-chloro-6-methoxybenzyl)-1,2,3,4-tetrahydroisoquinolin-6-yl)-4-(4,4-dimethylpiperidin-1-yl)-2,6-dimethylpyridin-3-yl)acetic acid]",> 7.00,
"Cc1nc(C)c([C@H](OC(C)(C)C)C(=O)O)c(N2CCC(C)(C)CC2)c1-c1ccc2c(c1)CCN(Cc1ccccc1OC(F)(F)F)C2 [Compound 123, (S)-2-(tert-butoxy)-2-(4-(4,4-dimethylpiperidin-1-yl)-2,6-dimethyl-5-(2-(2-(trifluoromethoxy)benzyl)-1,2,3,4-tetrahydroisoquinolin-6-yl)pyridin-3-yl)acetic acid]",> 7.00,0.011 µM
"Cc1nc(C)c([C@H](OC(C)(C)C)C(=O)O)c(N2CCC(C)(C)CC2)c1-c1ccc2c(c1)CCN(Cc1ccc(OC(F)(F)F)cc1)C2 [Compound 102, (S)-2-(tert-butoxy)-2-(4-(4,4-dimethylpiperidin-1-yl)-2,6-dimethyl-5-(2-(4-(trifluoromethoxy)benzyl)-1,2,3,4-tetrahydroisoquinolin-6-yl)pyridin-3-yl)acetic acid]",> 7.00,
"Cc1nc(C)c([C@H](OC(C)(C)C)C(=O)O)c(N2CCC(C)(C)CC2)c1-c1ccc2c(c1)CCN(Cc1c(F)cccc1Oc1ccccc1)C2 [Compound 159, (S)-2-(tert-butoxy)-2-(4-(4,4-dimethylpiperidin-1-yl)-5-(2-(2-fluoro-6-phenoxybenzyl)-1,2,3,4-tetrahydroisoquinolin-6-yl)-2,6-dimethylpyridin-3-yl)acetic acid]",> 7.00,
"COc1ccc(CN2CCc3cc(-c4c(C)nc(C)c([C@H](OC(C)(C)C)C(=O)O)c4N4CCC(C)(C)CC4)ccc3C2)c(F)c1 [Compound 146, (S)-2-(tert-butoxy)-2-(4-(4,4-dimethylpiperidin-1-yl)-5-(2-(2-fluoro-4-methoxybenzyl)-1,2,3,4-tetrahydroisoquinolin-6-yl)-2,6-dimethylpyridin-3-yl)acetic acid]",> 7.00,
"Cc1nc(C)c([C@H](OC(C)(C)C)C(=O)O)c(N2CCC(C)(C)CC2)c1-c1ccc2c(c1)CCN(Cc1ccccc1OCCO)C2 [Compound 88, (S)-2-(tert-butoxy)-2-(4-(4,4-dimethylpiperidin-1-yl)-5-(2-(2-(2-hydroxyethoxy)benzyl)-1,2,3,4-tetrahydroisoquinolin-6-yl)-2,6-dimethylpyridin-3-yl)acetic acid]",> 7.00,0.012 µM
